What was measured:
[1] = target: T1, 5-hydroxytryptamine receptor 1A (Homo sapiens, UniProt P08908)
T1 sequence (P08908 whole entry): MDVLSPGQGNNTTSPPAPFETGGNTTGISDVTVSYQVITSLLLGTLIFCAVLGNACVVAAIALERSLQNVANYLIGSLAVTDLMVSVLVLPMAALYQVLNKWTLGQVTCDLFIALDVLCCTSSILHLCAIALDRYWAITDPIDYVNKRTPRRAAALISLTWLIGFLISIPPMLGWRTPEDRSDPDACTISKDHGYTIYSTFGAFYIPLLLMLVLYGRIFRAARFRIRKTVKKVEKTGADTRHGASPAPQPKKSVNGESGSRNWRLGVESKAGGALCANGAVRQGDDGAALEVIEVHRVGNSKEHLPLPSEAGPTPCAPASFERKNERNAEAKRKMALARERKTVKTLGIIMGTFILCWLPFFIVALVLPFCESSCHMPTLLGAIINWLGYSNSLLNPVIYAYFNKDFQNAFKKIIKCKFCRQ

Adenosine receptor A3 = target: T2, Adenosine receptor A3 (Homo sapiens, UniProt P0DMS8)
T2 sequence (P0DMS8 whole entry): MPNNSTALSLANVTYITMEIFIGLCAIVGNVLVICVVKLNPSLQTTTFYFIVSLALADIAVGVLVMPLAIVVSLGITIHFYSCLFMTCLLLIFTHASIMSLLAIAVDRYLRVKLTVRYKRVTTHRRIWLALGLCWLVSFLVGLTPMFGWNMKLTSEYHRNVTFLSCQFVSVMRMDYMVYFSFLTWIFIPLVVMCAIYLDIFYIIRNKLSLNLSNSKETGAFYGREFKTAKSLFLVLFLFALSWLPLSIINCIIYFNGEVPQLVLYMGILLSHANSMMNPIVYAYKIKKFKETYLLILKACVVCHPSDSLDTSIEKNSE

[2] = target: T3, Alpha-1A adrenergic receptor (Homo sapiens, UniProt P35348); type: functional, cell-based
T3 sequence (P35348 whole entry): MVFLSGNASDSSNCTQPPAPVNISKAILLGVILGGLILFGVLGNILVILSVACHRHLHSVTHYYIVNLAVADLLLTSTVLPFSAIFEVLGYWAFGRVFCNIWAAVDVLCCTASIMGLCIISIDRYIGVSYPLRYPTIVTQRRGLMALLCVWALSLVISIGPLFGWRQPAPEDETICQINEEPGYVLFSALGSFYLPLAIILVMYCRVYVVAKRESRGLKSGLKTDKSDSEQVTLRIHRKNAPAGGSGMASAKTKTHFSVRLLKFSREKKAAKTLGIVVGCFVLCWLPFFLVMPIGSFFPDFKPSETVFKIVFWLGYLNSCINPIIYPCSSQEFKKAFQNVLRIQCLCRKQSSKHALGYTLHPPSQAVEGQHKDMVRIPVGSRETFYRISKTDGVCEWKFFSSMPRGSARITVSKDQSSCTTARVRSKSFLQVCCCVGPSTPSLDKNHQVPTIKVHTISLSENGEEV

Thromboxane A2 receptor = target: T4, Thromboxane A2 receptor (Homo sapiens, UniProt P21731); type: functional, cell-based
T4 sequence (P21731 whole entry): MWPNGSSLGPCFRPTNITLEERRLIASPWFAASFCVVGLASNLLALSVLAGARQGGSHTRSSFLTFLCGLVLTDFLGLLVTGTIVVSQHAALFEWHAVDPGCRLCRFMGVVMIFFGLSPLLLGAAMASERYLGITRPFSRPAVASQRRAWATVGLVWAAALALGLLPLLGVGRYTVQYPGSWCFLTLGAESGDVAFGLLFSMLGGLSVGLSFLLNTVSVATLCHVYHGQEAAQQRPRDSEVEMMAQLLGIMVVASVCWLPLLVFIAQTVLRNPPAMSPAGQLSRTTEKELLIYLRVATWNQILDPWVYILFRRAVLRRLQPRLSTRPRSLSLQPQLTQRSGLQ

[3] = target: T5, Alpha-2A adrenergic receptor (Homo sapiens, UniProt P08913)
T5 sequence (P08913 whole entry): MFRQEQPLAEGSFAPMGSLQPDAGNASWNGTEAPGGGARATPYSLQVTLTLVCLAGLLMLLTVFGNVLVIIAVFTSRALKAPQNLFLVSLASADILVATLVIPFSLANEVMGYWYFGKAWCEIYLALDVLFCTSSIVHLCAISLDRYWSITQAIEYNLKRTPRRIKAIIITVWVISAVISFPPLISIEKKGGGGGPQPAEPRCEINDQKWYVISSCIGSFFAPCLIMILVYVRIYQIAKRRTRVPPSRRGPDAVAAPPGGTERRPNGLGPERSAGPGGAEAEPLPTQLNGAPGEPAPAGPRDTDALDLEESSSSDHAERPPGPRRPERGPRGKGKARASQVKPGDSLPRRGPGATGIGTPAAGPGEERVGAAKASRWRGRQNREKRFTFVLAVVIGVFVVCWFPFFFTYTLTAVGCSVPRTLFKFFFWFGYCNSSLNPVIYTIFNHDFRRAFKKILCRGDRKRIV

[4] = target: 3',5'-cyclic-AMP phosphodiesterase 4A (Homo sapiens, UniProt P27815); type: functional
[5] = target: Sodium-dependent dopamine transporter (Homo sapiens, UniProt Q01959)
D(3) dopamine receptor = D(3) dopamine receptor (Homo sapiens, UniProt P35462)
[6] = target: T6, Muscarinic acetylcholine receptor M2 (Homo sapiens, UniProt P08172)
T6 sequence (P08172 whole entry): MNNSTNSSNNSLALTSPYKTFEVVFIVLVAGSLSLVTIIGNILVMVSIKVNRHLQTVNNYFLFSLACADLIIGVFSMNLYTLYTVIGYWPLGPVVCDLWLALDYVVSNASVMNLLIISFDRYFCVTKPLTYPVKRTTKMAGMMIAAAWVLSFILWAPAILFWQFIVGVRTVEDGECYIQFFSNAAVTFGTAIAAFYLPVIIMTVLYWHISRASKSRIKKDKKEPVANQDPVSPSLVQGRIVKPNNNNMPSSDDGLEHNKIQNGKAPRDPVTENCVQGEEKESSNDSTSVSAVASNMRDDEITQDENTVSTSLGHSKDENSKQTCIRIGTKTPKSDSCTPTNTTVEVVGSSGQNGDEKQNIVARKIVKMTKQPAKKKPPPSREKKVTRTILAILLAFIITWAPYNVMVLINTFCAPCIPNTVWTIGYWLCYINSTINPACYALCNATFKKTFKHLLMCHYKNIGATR

[7] = target: Prostaglandin G/H synthase 1 (Homo sapiens, UniProt P23219); type: functional
[8] = target: cGMP-inhibited 3',5'-cyclic phosphodiesterase 3A (Homo sapiens, UniProt Q14432); type: functional
[9] = target: Voltage-gated inwardly rectifying potassium channel KCNH2 (Homo sapiens, UniProt Q12809); type: functional; details: read-out: AC50
Note: assay procedure not described here.

Sequence of D(3) dopamine receptor (P35462 whole entry): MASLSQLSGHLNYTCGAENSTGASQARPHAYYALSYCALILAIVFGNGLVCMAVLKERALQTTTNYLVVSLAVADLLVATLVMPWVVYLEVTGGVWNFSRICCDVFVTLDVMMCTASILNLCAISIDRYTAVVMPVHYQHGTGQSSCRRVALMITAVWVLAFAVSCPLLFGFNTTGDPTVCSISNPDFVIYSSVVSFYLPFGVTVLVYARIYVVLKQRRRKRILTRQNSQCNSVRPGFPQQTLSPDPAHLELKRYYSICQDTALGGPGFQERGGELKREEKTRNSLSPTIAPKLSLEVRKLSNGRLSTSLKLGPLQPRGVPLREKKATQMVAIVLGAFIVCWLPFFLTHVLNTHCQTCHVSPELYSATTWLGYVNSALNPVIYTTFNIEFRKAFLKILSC
Sequence of cGMP-inhibited 3',5'-cyclic phosphodiesterase 3A (Q14432 whole entry): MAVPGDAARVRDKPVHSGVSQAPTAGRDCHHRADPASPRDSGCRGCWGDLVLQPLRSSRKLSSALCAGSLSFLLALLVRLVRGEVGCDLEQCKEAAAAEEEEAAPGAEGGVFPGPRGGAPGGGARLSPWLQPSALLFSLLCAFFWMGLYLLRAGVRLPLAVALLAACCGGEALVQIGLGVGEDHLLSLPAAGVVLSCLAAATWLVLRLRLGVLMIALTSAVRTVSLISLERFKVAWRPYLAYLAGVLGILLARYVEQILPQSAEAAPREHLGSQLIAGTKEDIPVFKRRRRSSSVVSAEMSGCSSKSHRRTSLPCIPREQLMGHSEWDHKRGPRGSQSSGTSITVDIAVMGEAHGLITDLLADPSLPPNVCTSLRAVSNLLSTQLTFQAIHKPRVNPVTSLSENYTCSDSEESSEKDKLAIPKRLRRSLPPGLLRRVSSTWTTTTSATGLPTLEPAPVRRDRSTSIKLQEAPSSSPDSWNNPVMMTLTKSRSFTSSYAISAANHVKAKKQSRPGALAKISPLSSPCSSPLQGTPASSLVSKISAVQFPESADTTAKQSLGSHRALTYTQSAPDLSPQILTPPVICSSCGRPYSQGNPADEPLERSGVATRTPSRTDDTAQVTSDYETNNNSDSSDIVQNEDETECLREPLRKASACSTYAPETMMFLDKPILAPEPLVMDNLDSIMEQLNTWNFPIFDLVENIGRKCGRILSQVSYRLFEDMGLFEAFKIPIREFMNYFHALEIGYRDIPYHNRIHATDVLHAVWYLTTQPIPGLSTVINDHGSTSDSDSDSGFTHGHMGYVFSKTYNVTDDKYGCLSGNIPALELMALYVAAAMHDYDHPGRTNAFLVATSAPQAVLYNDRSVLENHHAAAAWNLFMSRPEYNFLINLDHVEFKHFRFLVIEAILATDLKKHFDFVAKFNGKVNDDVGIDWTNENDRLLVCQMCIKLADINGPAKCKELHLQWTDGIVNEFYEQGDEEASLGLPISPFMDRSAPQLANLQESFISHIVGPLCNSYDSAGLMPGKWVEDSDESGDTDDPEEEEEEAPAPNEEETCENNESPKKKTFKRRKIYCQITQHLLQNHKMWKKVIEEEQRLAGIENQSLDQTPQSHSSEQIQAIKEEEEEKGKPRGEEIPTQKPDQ
Sequence of Sodium-dependent dopamine transporter (Q01959 whole entry): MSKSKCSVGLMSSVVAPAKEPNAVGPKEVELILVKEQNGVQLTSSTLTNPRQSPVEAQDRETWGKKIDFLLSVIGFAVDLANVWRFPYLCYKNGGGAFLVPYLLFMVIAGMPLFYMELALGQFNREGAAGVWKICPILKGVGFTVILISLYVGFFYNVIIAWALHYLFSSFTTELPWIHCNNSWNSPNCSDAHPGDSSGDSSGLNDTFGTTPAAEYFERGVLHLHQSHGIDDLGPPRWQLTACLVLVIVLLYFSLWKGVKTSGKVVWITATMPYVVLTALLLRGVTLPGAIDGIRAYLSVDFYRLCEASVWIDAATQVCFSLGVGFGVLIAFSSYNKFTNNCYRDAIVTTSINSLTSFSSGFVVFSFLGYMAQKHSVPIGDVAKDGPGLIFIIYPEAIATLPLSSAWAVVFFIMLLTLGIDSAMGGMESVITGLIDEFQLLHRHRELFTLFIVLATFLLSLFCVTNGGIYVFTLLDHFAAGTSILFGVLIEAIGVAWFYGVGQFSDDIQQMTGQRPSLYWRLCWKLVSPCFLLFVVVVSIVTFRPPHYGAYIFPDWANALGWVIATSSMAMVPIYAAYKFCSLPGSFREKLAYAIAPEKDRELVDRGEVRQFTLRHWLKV
Sequence of Voltage-gated inwardly rectifying potassium channel KCNH2 (Q12809 whole entry): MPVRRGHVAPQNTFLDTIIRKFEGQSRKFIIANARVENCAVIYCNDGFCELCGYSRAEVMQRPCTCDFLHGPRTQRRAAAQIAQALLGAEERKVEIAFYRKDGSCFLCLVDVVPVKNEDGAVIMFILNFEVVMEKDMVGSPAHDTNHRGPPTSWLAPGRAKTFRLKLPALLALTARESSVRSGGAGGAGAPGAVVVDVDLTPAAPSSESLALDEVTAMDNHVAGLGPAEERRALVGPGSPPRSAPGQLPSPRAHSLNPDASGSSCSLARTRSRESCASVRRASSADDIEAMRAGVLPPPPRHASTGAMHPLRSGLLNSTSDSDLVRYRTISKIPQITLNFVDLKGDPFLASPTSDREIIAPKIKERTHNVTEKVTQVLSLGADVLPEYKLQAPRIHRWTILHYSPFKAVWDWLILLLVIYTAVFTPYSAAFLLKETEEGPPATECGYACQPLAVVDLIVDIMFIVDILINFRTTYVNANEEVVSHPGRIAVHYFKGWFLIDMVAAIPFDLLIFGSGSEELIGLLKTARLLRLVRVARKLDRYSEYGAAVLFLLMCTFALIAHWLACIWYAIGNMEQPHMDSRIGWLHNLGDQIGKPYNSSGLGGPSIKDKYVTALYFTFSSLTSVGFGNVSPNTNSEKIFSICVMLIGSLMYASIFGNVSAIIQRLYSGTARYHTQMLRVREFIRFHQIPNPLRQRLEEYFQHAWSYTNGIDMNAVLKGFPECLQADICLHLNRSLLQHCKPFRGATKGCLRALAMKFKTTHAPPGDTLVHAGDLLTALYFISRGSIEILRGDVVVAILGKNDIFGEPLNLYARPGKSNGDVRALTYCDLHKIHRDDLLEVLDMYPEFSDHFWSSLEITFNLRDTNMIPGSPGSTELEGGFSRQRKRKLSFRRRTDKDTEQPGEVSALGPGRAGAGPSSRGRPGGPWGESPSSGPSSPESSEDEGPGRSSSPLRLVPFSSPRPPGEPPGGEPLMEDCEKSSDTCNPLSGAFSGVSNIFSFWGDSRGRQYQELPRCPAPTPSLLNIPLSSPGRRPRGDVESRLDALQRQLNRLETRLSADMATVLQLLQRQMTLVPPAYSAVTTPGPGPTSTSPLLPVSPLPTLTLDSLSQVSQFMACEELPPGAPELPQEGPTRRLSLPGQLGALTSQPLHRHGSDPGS
Sequence of 3',5'-cyclic-AMP phosphodiesterase 4A (P27815 whole entry): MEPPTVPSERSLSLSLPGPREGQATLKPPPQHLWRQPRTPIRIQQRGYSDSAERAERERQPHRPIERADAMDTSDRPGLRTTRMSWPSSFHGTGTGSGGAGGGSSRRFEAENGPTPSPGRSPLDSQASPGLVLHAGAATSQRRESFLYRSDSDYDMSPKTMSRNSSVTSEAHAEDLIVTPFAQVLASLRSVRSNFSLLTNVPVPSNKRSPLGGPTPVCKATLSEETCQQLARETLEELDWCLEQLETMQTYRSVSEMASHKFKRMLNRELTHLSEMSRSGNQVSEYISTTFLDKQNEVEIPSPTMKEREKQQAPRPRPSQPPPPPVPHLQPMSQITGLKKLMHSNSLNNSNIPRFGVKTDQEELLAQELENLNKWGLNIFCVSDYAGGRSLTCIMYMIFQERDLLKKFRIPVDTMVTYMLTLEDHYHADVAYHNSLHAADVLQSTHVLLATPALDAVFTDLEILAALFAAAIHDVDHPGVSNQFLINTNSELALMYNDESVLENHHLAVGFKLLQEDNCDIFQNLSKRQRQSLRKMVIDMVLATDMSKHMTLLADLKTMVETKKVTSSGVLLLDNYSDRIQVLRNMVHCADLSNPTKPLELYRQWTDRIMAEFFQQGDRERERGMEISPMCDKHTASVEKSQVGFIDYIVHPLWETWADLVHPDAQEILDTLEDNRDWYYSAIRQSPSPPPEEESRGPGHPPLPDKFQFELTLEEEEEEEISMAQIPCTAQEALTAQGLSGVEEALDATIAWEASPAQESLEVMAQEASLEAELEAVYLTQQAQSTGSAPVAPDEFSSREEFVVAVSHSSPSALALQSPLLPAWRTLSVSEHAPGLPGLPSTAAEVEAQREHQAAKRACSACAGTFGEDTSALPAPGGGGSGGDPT
Sequence of Prostaglandin G/H synthase 1 (P23219 whole entry): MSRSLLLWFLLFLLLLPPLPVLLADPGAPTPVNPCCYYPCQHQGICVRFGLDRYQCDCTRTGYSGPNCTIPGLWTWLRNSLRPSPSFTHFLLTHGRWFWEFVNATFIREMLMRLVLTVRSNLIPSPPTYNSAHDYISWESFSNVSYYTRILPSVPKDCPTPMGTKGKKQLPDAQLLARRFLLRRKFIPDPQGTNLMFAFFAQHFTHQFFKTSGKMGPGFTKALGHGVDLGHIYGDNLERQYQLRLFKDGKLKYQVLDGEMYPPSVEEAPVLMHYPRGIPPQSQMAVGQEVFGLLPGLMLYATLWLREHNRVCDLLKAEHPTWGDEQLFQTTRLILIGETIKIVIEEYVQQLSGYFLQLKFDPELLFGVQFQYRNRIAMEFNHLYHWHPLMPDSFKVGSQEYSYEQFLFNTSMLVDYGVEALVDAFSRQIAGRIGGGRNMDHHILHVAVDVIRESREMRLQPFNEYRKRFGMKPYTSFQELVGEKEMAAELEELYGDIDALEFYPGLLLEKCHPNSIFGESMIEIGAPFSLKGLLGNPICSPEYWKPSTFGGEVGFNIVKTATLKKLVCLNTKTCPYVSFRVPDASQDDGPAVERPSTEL

Compound	AC50 [1]	AC50 (Adenosine receptor A3)	AC50 [2]	AC50 (Thromboxane A2 receptor)	AC50 [3]	AC50 [4]	AC50 [5]	AC50 (D(3) dopamine receptor)	AC50 [6]	AC50 [7]	AC50 [8]	AC50 [9]
COCC(=O)O[C@]1(CCN(C)CCCc2nc3ccccc3[nH]2)CCc2cc(F)ccc2[C@@H]1C(C)C [MIBEFRADIL]	0.746 µM	14.3 µM	25.9 µM	> 3 µM	23.4 µM	> 30 µM	9.53 µM	0.825 µM	3.85 µM	> 30 µM	> 30 µM	
CC(C)Cc1ccc(C(C)C(=O)OCc2ccccn2)cc1 (configuration not stated) [IBUPROFEN PICONOL]	> 30 µM	15.8 µM	> 30 µM	> 30 µM	> 30 µM	> 30 µM	> 30 µM		> 30 µM	10.8 µM	> 30 µM	> 30 µM
CC1=C(/C=C/C(C)=C\C=C\C(C)=C\C(=O)O)C(C)(C)CCC1 [ALITRETINOIN]	> 30 µM	> 30 µM	> 30 µM	> 30 µM	> 30 µM	> 30 µM	> 30 µM	> 30 µM	> 30 µM		> 30 µM	
COc1cccc2c1C(=O)c1c(O)c3c(c(O)c1C2=O)C[C@@](O)(C(=O)CO)C[C@@H]3O[C@H]1C[C@H](N)[C@@H](O)[C@H](C)O1 [EPIRUBICIN]	> 30 µM	> 30 µM	8.86 µM	> 30 µM	> 30 µM	19.3 µM	> 30 µM	> 30 µM	25.2 µM	2.44 µM	> 30 µM	
CC1(C)S[C@@H]2[C@H](NC(=O)[C@H](NC(=O)c3cnc4cccnc4c3O)c3ccccc3)C(=O)N2[C@H]1C(=O)O [APALCILLIN]	> 30 µM	29 µM	> 30 µM	> 30 µM	> 30 µM	> 30 µM	> 30 µM	> 30 µM	> 30 µM	14.6 µM	> 30 µM	
CC1(C)CCC(C)(C)c2cc(NC(=O)c3ccc(C(=O)O)cc3)ccc21 [TAMIBAROTENE]	> 30 µM	29.8 µM	> 30 µM	9.94 µM	> 30 µM	> 30 µM	> 30 µM	> 30 µM	> 30 µM	> 30 µM	> 30 µM	
CC(=O)OCC(=O)[C@@]1(O)CC[C@H]2[C@@H]3C[C@H](C)C4=CC(=O)C=C[C@]4(C)[C@H]3[C@@H](O)C[C@@]21C [METHYLPREDNISOLONE ACETATE]	> 30 µM	> 30 µM	> 30 µM	> 30 µM	> 30 µM	> 30 µM	> 30 µM	> 30 µM	> 30 µM	> 30 µM	> 30 µM	
N[C@@H](Cc1ccc(O)cc1)C(=O)O [TYROSINE]	> 30 µM	> 30 µM	> 30 µM	> 30 µM	> 30 µM	> 30 µM	> 30 µM	> 30 µM	> 30 µM	> 30 µM	> 30 µM	
CC1=C(/C=C/C(C)=C/C=C/C(C)=C\C(=O)O)C(C)(C)CCC1 [ISOTRETINOIN]	> 30 µM	> 30 µM	> 30 µM	> 30 µM	> 30 µM	> 30 µM	> 30 µM	> 30 µM	> 30 µM		> 30 µM	
COc1cc(C[C@@H]2NCCc3cc(O)c(O)cc32)cc(OC)c1OC [TRETOQUINOL]	7.31 µM	> 30 µM	> 30 µM		0.829 µM	> 30 µM	> 30 µM	1.81 µM	> 30 µM	5.31 µM	> 30 µM	> 30 µM
CNC(=O)c1cnn(-c2nc(N)c3ncn([C@@H]4O[C@H](CO)[C@@H](O)[C@H]4O)c3n2)c1 [REGADENOSON ANHYDROUS]	> 30 µM	0.481 µM	28.2 µM	> 30 µM	> 30 µM	> 30 µM	> 30 µM	> 30 µM	> 30 µM	> 30 µM	> 30 µM	
CCOC1O[C@H]([C@@H](COCc2ccccc2)OCc2ccccc2)[C@H](OCc2ccccc2)[C@H]1O (some centres not stated) [TRIBENOSIDE]	> 30 µM	14 µM	> 30 µM	11.9 µM	> 30 µM	> 30 µM	> 30 µM		> 30 µM	> 30 µM	> 30 µM	> 30 µM
Cn1c(CCCC(=O)O)nc2cc(N(CCCl)CCCl)ccc21 [BENDAMUSTINE]	> 30 µM	> 30 µM	> 30 µM	> 30 µM	> 30 µM	> 30 µM	> 30 µM	> 30 µM	> 30 µM	5.8 µM	> 30 µM	
CCn1c(=O)c2c(nc(/C=C/c3ccc(OC)c(OC)c3)n2C)n(CC)c1=O [ISTRADEFYLLINE]	10.5 µM	> 10 µM	> 30 µM	> 30 µM	> 10 µM	2.77 µM	> 30 µM		> 30 µM	> 30 µM	> 30 µM	> 30 µM

Reference: ChEMBL document CHEMBL5291721, “A preclinical secondary pharmacology resource illuminates target-adverse drug reaction associations of marketed drugs” (Nat Commun, 2023)
